The source of these data is patent US11814376B2, “Hepatitis b core protein modulators” (Assembly Biosciences, Inc., priority 2015, dated 2023).

Data set [1] deals with HBV viral load in AD38 cells. Kind of data set: Viral load production in AD38 cells, quantitative PCR of the core sequence in supernatant. The data set is classed as cell-based. Particulars: 10 μM compound, 6 days at 37° C., supernatant qPCR, relative to DMSO control; for activity at 10 µM: Hepatitis B virus, 144 h, read-out: AD38 Viral Load (%) (VL with cmpd/VL in DMSO control) at 10 μM. On the technique in general: Real-time PCR tracks product formation cycle by cycle.

Data set [2] relates to AD38 cells. Briefly: Viability of AD38 cells (Promega CellTiter-Glo). Format: cell-based. Conditions: 10 μM compound, 6 days, CellTiter-Glo luminescence normalized to DMSO control (100%). In short, it runs like this:
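After 6 days of compound exposure at 37° C (compound added as 10× solution in 10% DMSO; 50,000 cells/well, collagen-coated), medium was replaced with tetracycline-free DMEM/F12, 2% FBS, 1% DMSO. CellTiter-Glo luminescence was then recorded and normalized to DMSO-treated wells as 100% viability.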
A general note: In ATP-based viability assays light output follows the ATP content of the culture.

For the compound `Cc1cc2c(cc1C(=O)NCc1cnc(-c3ccc(C#N)cc3)s1)NC(=O)c1ccccc1S2(=O)=O` [compound 1911], in data set [1], the activity at 10 µM was 0.4%. In addition, in data set [2], the “AD38 Viability Normalized Result (cmpd/DMSO %) at 10 μM” value is reported as 111%.

On to `O=C(NCc1cnc(-c2ccc(-n3cccn3)cc2)s1)c1ccc2c(c1)NC(=O)c1ccccc1S2(=O)=O` [compound 1952, N-((2-(4-(1H-pyrazol-1-yl)phenyl)thiazol-5-yl)methyl)-11-oxo-10, 11-dihydrodibenzo [b, f] [1, 4] thiazepine-8-carboxamide 5,5-dioxide], for which the activity at 10 µM in data set [1] worked out at 0.8%. In addition, in data set [2], the “AD38 Viability Normalized Result (cmpd/DMSO %) at 10 μM” value is 106%.

Turning to `COc1ccc(-c2ncc(CNC(=O)c3ccc4c(c3)NC(=O)c3ccccc3O4)s2)cc1C` [1736-A], in data set [1], the activity at 10 µM was determined as 14.1%. For the same compound, in data set [2], the “AD38 Viability Normalized Result (cmpd/DMSO %) at 10 μM” value was found to be 97%.

For the compound `O=C(NCc1cnc(-c2ccc3ncccc3c2)s1)c1ccc2c(c1)NC(=O)c1ccccc1O2` [compound 1831], the activity at 10 µM in data set [1] is 3.8%. In data set [2], the “AD38 Viability Normalized Result (cmpd/DMSO %) at 10 μM” value amounted to 112%.

For the compound `CC1c2ccc(C(=O)NCc3cnc(-c4ccc(O)cc4)s3)cc2NC(=O)c2ccccc21` (centres unmarked) [compound 1754], the activity at 10 µM in data set [1] worked out at 1.6%. The “AD38 Viability Normalized Result (cmpd/DMSO %) at 10 μM” value in data set [2] amounted to 93%.

For `O=C1CCCCN(c2ncc(CNC(=O)c3ccc4c(c3)NC(=O)c3ccccc3S4(=O)=O)s2)C1` [compound 1909, 11-oxo-N-((2-(3-oxoazepan-1-yl)thiazol-5-yl)methyl)-10, 11-dihydrodibenzo [b, f] [1, 4] thiazepine-8-carboxamide 5,5-dioxide], the activity at 10 µM in data set [1] was 1.3%. Besides, the “AD38 Viability Normalized Result (cmpd/DMSO %) at 10 μM” value in data set [2] came out at 95%.

Regarding `CN(C)CCOc1ccc(-c2ncc(CNC(=O)c3ccc4c(c3)NC(=O)c3ccccc3S4)s2)cc1` [compound 1608], in data set [1], the activity at 10 µM worked out at 12.4%. The “AD38 Viability Normalized Result (cmpd/DMSO %) at 10 μM” value in data set [2] is recorded as 98%.

Turning to `CN(C)CCC#Cc1ccc(-c2ncc(CNC(=O)c3ccc4c(c3)NC(=O)c3ccccc3S4(=O)=O)s2)cc1` [compound 11003, N-((2-(4-(4-(dimethylamino)but-1-yn-1-yl)phenyl)thiazol-5-yl)methyl)-11-oxo-10, 11-dihydrodibenzo [b, f] [1, 4] thiazepine-8-carboxamide 5,5-dioxide], the activity at 10 µM in data set [1] was determined as 0.3%. Also, the “AD38 Viability Normalized Result (cmpd/DMSO %) at 10 μM” value in data set [2] is reported as 97%.

Take `NC(=O)c1cccc(-c2ncc(CNC(=O)c3ccc4c(c3)NC(=O)c3ccccc3S4(=O)=O)s2)c1` [1677-B, N-((2-(3-carbamoylphenyl)thiazol-5-yl)methyl)-11-oxo-10, 11-dihydrodibenzo [b, f] [1, 4] thiazepine-8-carboxamide 5,5-dioxide]: the activity at 10 µM in data set [1] amounted to 2.4%. In data set [2], the “AD38 Viability Normalized Result (cmpd/DMSO %) at 10 μM” value came to 89%.

`O=C(NCc1cnc(-n2cccn2)s1)c1ccc2c(c1)NC(=O)c1ccccc1S2(=O)=O` [compound 1960]: the activity at 10 µM in data set [1] was 0.8%. The “AD38 Viability Normalized Result (cmpd/DMSO %) at 10 μM” value in data set [2] turned out to be 106%.

In the case of `COc1ccc(-c2ncc(CNC(=O)c3ccc4c(c3)NC(=O)c3ccccc3S4(=O)=O)s2)nc1` [1879-A], the activity at 10 µM in data set [1] stood at 2.5%. The “AD38 Viability Normalized Result (cmpd/DMSO %) at 10 μM” value in data set [2] was determined as 121%.

Turning to `NC(=O)c1ccc(-c2ncc(CNC(=O)c3ccc4c(c3)NC(=O)c3ccccc3O4)s2)cc1` [compound 1770, N-((2-(4-carbamoylphenyl)thiazol-5-yl)methyl)-11-oxo-10, 11-dihydrodibenzo [b, f] [1, 4] oxazepine-8-carboxamide], the activity at 10 µM in data set [1] was found to be 32.5%. Also, in data set [2], the “AD38 Viability Normalized Result (cmpd/DMSO %) at 10 μM” value is given as 77%.

Consider `O=C(NCc1cnc(-c2ccncc2)s1)c1ccc2c(c1)NC(=O)c1ccccc1S2(=O)=O` [compound 1625], for which the activity at 10 µM in data set [1] worked out at 51.9%. In data set [2], the “AD38 Viability Normalized Result (cmpd/DMSO %) at 10 μM” value is recorded as 96%.

Regarding `CN(C)CCOc1ccc(-c2ncc(CNC(=O)c3ccc4c(c3)NC(=O)c3ccccc3O4)s2)cc1` [compound 1621], the activity at 10 µM in data set [1] stood at 25.9%. For the same compound, the “AD38 Viability Normalized Result (cmpd/DMSO %) at 10 μM” value in data set [2] is 81%.

In the case of `Cc1ncc(CNC(=O)c2ccc3c(c2)NC(=O)c2ccccc2[S+]3[O-])s1` (centres unmarked) [compound 1526], in data set [1], the activity at 10 µM was found to be 0.8%. The “AD38 Viability Normalized Result (cmpd/DMSO %) at 10 μM” value in data set [2] stood at 94%.

As for `O=C(NCc1cnc(-c2ccc(SCCCN3CCOCC3)cc2)s1)c1ccc2c(c1)NC(=O)c1ccccc1S2(=O)=O` [compound 11066, N-((2-(4-((3-morpholinopropyl)thio)phenyl)thiazol-5-yl)methyl)-11-oxo-10, 11-dihydrodibenzo [b, f] [1, 4] thiazepine-8-carboxamide 5,5-dioxide], the activity at 10 µM in data set [1] came out at 0.4%. In addition, the “AD38 Viability Normalized Result (cmpd/DMSO %) at 10 μM” value in data set [2] is listed as 104%.

With `O=C(NCc1cnc(-c2ccc(OCCCNCC(F)(F)F)cc2)s1)c1ccc2c(c1)NC(=O)c1ccccc1S2(=O)=O` [compound 11102], the activity at 10 µM in data set [1] stood at 0.5%. For the same compound, the “AD38 Viability Normalized Result (cmpd/DMSO %) at 10 μM” value in data set [2] came to 93%.

Consider `O=C(NCc1cnc(-c2ccc(OCCCOn3nnc4cccnc43)cc2)s1)c1ccc2c(c1)NC(=O)c1ccccc1S2(=O)=O` [11108-B, N-((2-(4-(3-((3H-[1,2,3]triazolo[4,5-b]pyridin-3-yl)oxy)propoxy)phenyl)thiazol-5-yl)methyl)-11-oxo-10,11-dihydrodibenzo[b, f] [1,4]thiazepine-8-carboxamide 5,5-dioxide], for which the activity at 10 µM in data set [1] came out at 0.8%. Also, the “AD38 Viability Normalized Result (cmpd/DMSO %) at 10 μM” value in data set [2] worked out at 101%.

`Cc1ncc(CNC(=O)c2ccc3c(=O)c4ccccc4c(=O)[nH]c3c2)s1` [compound 1592]: the activity at 10 µM in data set [1] worked out at 1.3%. Moreover, the “AD38 Viability Normalized Result (cmpd/DMSO %) at 10 μM” value in data set [2] is 99%.

As for `O=C(O)c1ccc(-c2ncc(CNC(=O)c3ccc4c(c3)NC(=O)c3ccccc3S4)s2)cc1` [compound 1599, 4-(5-((11-oxo-10, 11-dihydrodibenzo [b, f] [1, 4]thiazepine-8-carboxamido)methyl)thiazol-2-yl) benzoic acid], the activity at 10 µM in data set [1] amounted to 5.9%. In addition, the “AD38 Viability Normalized Result (cmpd/DMSO %) at 10 μM” value in data set [2] came out at 61%.

As for `COC(=O)[C@@H]1CCCN1CCCOc1ccc(-c2ncc(CNC(=O)c3ccc4c(c3)NC(=O)c3ccccc3S4(=O)=O)s2)cc1` [11106-A], the activity at 10 µM in data set [1] is 3.6%. In data set [2], the “AD38 Viability Normalized Result (cmpd/DMSO %) at 10 μM” value is on record as 90%.

As to `O=C(O)COc1ncc(CNC(=O)c2ccc3c(c2)NC(=O)c2ccccc2S3(=O)=O)s1` [compound 1580, 2-((5-((5,5-dioxido-11-oxo-10, 11-dihydrodibenzo [b, f] [1, 4]thiazepine-8-carboxamido)methyl)thiazol-2-yl)oxy) acetic acid], in data set [1], the activity at 10 µM was 104%. In data set [2], the “AD38 Viability Normalized Result (cmpd/DMSO %) at 10 μM” value worked out at 102%.

Take `N#Cc1ccc(-c2ncc(CNC(=O)c3ccc4c(c3)NC(=O)c3cccc(F)c3S4(=O)=O)s2)cc1` [compound 1904]: in data set [1], the activity at 10 µM amounted to 0.5%. Further, in data set [2], the “AD38 Viability Normalized Result (cmpd/DMSO %) at 10 μM” value came out at 89%.

For the compound `C=CCN1c2ccc(C(=O)NCc3cnc(-c4ccc(C#N)cc4)s3)cc2NC(=O)c2ccccc21` [compound 1921], in data set [1], the activity at 10 µM amounted to 1.2%. Also, in data set [2], the “AD38 Viability Normalized Result (cmpd/DMSO %) at 10 μM” value worked out at 101%.

For `CC(C)(C)OC(=O)N1CC(COc2ccc(-c3ncc(CNC(=O)c4ccc5c(c4)NC(=O)c4ccccc4S5(=O)=O)s3)cc2)C1` [1995-A, tert-butyl 3-((4-(5-((5,5-dioxido-11-oxo-10, 11-dihydrodibenzo [b, f] [1, 4]thiazepine-8-carboxamido)methyl)thiazol-2-yl)phenoxy)methyl) azetidine-1-carboxylate], the “AD38 Viral Load (%) (VL with cmpd/VL in DMSO control) at 10 μM” value in data set [1] stood at 2.4%. Further, the “AD38 Viability Normalized Result (cmpd/DMSO %) at 10 μM” value in data set [2] stood at 107%.

For the compound `CC(C)(C)OC(=O)N1CCN(c2ccc(-c3ncc(CNC(=O)c4ccc5c(c4)NC(=O)c4ccccc4S5(=O)=O)s3)cn2)CC1` [11019-A, tert-butyl 4-(5-(5-((5,5-dioxido-11-oxo-10, 11-dihydrodibenzo [b, f] [1, 4]thiazepine-8-carboxamido)methyl)thiazol-2-yl)pyridin-2-yl) piperazine-1-carboxylate], in data set [1], the “AD38 Viral Load (%) (VL with cmpd/VL in DMSO control) at 10 μM” value is listed as 1.0%. Further, the “AD38 Viability Normalized Result (cmpd/DMSO %) at 10 μM” value in data set [2] was determined as 95%.

Take `O=C(NCc1cnc(-c2ccc(OCCCN3CCC(C(=O)O)C3)cc2)s1)c1ccc2c(c1)NC(=O)c1ccccc1S2(=O)=O` (centres unmarked) [compound 11107, 1-(3-(4-(5-((5,5-dioxido-11-oxo-10, 11-dihydrodibenzo [b, f] [1, 4]thiazepine-8-carboxamido)methyl)thiazol-2-yl)phenoxy)propyl) pyrrolidine-3-carboxylic acid]: the activity at 10 µM in data set [1] is 6.4%. For the same compound, in data set [2], the “AD38 Viability Normalized Result (cmpd/DMSO %) at 10 μM” value worked out at 96%.

In the case of `O=C(NCc1cnc(C(=O)c2ccccc2)s1)c1ccc2c(c1)NC(=O)c1ccccc1S2(=O)=O` [compound 1929], the activity at 10 µM in data set [1] is 1.2%. Besides, the “AD38 Viability Normalized Result (cmpd/DMSO %) at 10 μM” value in data set [2] is listed as 93%.

For `Cc1c(C(=O)NCc2cnc(-c3ccc(C#N)cc3)s2)ccc2c1NC(=O)c1ccccc1O2` [compound 1942], the activity at 10 µM in data set [1] worked out at 3%. Besides, the “AD38 Viability Normalized Result (cmpd/DMSO %) at 10 μM” value in data set [2] is given as 106%.

As to `O=C(NCc1cnc(-c2ccc(O)c(F)c2)s1)c1ccc2c(c1)NC(=O)c1ccccc1O2` [compound 1700], the activity at 10 µM in data set [1] is 9.2%. Further, the “AD38 Viability Normalized Result (cmpd/DMSO %) at 10 μM” value in data set [2] came out at 105%.

`Cc1cc(-c2ncc(CNC(=O)c3ccc4c(c3)NC(=O)c3ccccc3O4)s2)ccc1O` [compound 1736, N-((2-(4-hydroxy-3-methylphenyl)thiazol-5-yl)methyl)-11-oxo-10, 11-dihydrodibenzo [b, f] [1, 4] oxazepine-8-carboxamide]: the activity at 10 µM in data set [1] turned out to be 6.8%. For the same compound, the “AD38 Viability Normalized Result (cmpd/DMSO %) at 10 μM” value in data set [2] worked out at 94%.
